Measurements from patent publication US20210290541A1, “SOLID DISPERSION OF HYDANTOIN DERIVATIVE” (Chugai Seiyaku Kabushiki Kaisha, priority 2018, published 2021).
≈ marks a conversion by molar mass, not a printed value. Each block holds one molecule with its values, some of them ahead of it.

Columns and labels:
Format in all cases: physicochemical
pKa values = assay: pKa values
Text: (§1) Compound I can be produced, for example, by the method described in Example 3 (Compound 7) of WO2014/092061.
In the present invention, the “base” preferably has a pKa value greater than that of Compound I. Since the lower pKa value of Compound I is about 8, the bases that can be used in the present invention desirably have a pKa value that is preferably more than about 9, even more preferably more than about 10, and most preferably more than about 11. Here, the term pKa is used in its conventional form. That is, pKa is the negative logarithm of the ionization constant of the acid. Unless otherwise specified, pKa is assumed to be measured in distilled water at 25° C.

[1] = solubility in FaSSIF (excess amount, stirring 24 hours or more, centrifugation, HPLC)
Method: A suitable FaSSIF is, for example, an aqueous solution containing 28.7 mM potassium dihydrogen phosphate (KH2PO4), 103.3 mM KCl, 3 mM sodium taurocholate, and 0.8 mM L-α-phosphatidylcholine, and adjusted to pH 6.5 using NaOH.
Furthermore, for the purpose of evaluating the solubility of the type I crystal of the free form of Compound I in FaSSIF, an excess amount of the type I crystal of the free form of Compound I was placed in FaSSIF, and after soaking and stirring at 37° C. for 24 hours or more, this was subjected to centrifugation. […] In addition, the solubility of the type II crystal of the free form of Compound I evaluated in the same manner was 2 μg/mL.

water solubility = details: 37° C., pH 6 to 7
Text: as §1

[2] = organic solvent solubility; details: for solubility: organic solvent or mixture
Method: as §1
A solvent suitable for solvent treatment may be any compound in which drugs, polymers, and bases are mutually soluble. Preferably, the solvent is also volatile and has a boiling point of 150° C. or lower. Furthermore, the solvent should have relatively low toxicity and should be removed from the solid dispersion to a level that is acceptable according to the guidelines of the International Council for Harmonization of Technical Requirements for Pharmaceuticals for Human Use (ICH). Removal of the solvent to this level may require a subsequent processing step such as tray-drying. Preferred solvents include alcohols such as methanol, ethanol, n-propanol, iso-propanol, and butanol; ketones such as acetone, methyl ethyl ketone, and methyl iso-butyl ketone; esters such as ethyl acetate and propyl acetate; and various other solvents, such as acetonitrile, methylene chloride, toluene, 1,1,1-trichloroethane, and tetrahydrofuran. Low-volatility solvents such as dimethylacetamide or dimethylsulfoxide can also be used in small amounts in mixtures with volatile solvents. A mixture of solvents such as 50% methanol and 50% acetone can also be used in the same manner as a mixture with water. Preferred solvents are ethanol, methanol, acetone, tetrahydrofuran, ethyl acetate, mixtures of these with water, and mixtures thereof. […] In particular, tetrahydrofuran and its mixed liquids can be referred to as preferred solvents.

[3] = storage stability of crystals

pKa (pKa values; distilled water): 8 | solubility ([1]; FaSSIF, 37 °C, pH 6.5, fassif, thermodynamic from solid): 1 µg/mL (≈ 1.57 µM) | solubility (water solubility): < 1 µg/mL
SMILES: Cc1cc(N2C(=O)NC(=O)C2(C)C)cc(C)c1CCS(=O)(=O)N1CCC2(CC1)N=C(c1ccc(OC(F)(F)F)cc1)NC2=O

solubility ([2]; acetone/water mixture (95:5 v/v), volume ratio 95:5, read-out: solubility in a mixed solution of acetone and water): ≥ 50 mg/mL | solubility ([2]; tetrahydrofuran, room temperature, read-out: solubility in THF (tetrahydrofuran)): ≥ 80 mg/mL | solubility ([2]; tetrahydrofuran/methanol mixture (95:5 v/v), volume ratio 95:5, read-out: solubility in a mixed solution of tetrahydrofuran and methanol): ≥ 100 mg/mL | pKa values (pKa values): about 8
SMILES: Cc1cc(N2C(=O)NC(=O)C2(C)C)cc(C)c1CCS(=O)(=O)N1CCC2(CC1)N=C(c1ccc(OC(F)(F)F)cc1)NC2=O [Compound I, 1-(3,5-dimethyl-4-(2-((4-oxo-2-(4-(trifluoromethoxy)phenyl)-1,3,8-triazaspiro[4.5]deca-1-en-8-yl)sulfonyl)ethyl)phenyl)-5,5-dimethylimidazolidine-2,4-dione]

solubility in THF (tetrahydrofuran) ([2]; room temperature): ≥ 80 mg/mL | storage stability [3]: excellent storage stability
SMILES: Cc1cc(N2C(=O)NC(=O)C2(C)C)cc(C)c1CCS(=O)(=O)N1CCC2(CC1)N=C(c1ccc(OC(F)(F)F)cc1)NC2=O [type I crystal of the free form of Compound I]

solubility in FaSSIF ([1]; 37° C.): 2 µg/mL (≈ 3.15 µM)
SMILES: Cc1cc(N2C(=O)NC(=O)C2(C)C)cc(C)c1CCS(=O)(=O)N1CCC2(CC1)N=C(c1ccc(OC(F)(F)F)cc1)NC2=O [type II crystal of the free form of Compound I]
